The source of these data is paper PMC6895180 (Nature Communications, 2019).

Several values for one entry are separate records, joined by “and”; a condition that tells them apart may be missing. Identical values can stand only once.

The assay relates to T. brucei NY-SM cells. Description: Cell cycle analysis by flow cytometry. Type of assay: cell-based, Trypanosoma brucei. On the procedure:
After 24 h, the cells were harvested and washed with PBS before staining with Hoechst 33342 at 5 µg mL^−1 for 25 min at 37 °C. Cells were analysed on a MACSQuant flow cytometer (Miltenyi Biotec) using the FlowJo X software package.
On the technique in general: Flow cytometry measures light scatter and fluorescence of single cells or particles in a stream.

With `Nc1ncnc2c1ccn2[C@@H]1O[C@H](CO)C[C@H]1O` [Compound 9, 3’-deoxytubercidin], for the setting “1.4 nM”, the “# cells 2N” value was 18946 and 19862; the “# cells 4N” value was 4825 and 4846; the “# cells S” value is 16441 and 16011; the “% of cells 2N” value is 44.3% and 46.2%. Further, where the note is “1.4 nM”, the “% of cells 4N” value came out at 11.3%; the “% of cells S” value is 38.5% and 37.2%. In addition, where the note is “3.5 nM”, the “# cells 2N” value was 19884 and 19251; the “# cells 4N” value was 4669 and 4555; the “# cells S” value is 15056 and 15140; the “% of cells 2N” value was 47.3% and 46.7%. Where the note is “3.5 nM”, the “% of cells 4N” value came out at 11.1%; the “% of cells S” value is 35.9% and 36.8%. In addition, for the setting “7 nM”, the “# cells 2N” value is 18100 and 17699; the “# cells 4N” value was 3787 and 3626; the “# cells S” value was 10717 and 10604; the “% of cells 2N” value was 51.1% and 50%. Further, for the setting “7 nM”, the “% of cells 4N” value was 10.7% and 10.2%; the “% of cells S” value is 30.2% and 29.9%. For the same compound, the “cell cycle analysis: impact on DNA synthesis” value (24 h, various concentrations) is listed as “no major impact on DNA synthesis”.
